The term inhibition denotes the share of the control response that was lost under treatment.

Among the data in patent publication US20200171030A1, “DUAL INHIBITORS OF ALK5 AND P38A MAP KINASE” (INTEGRAL BIOSCIENCES PRIVATE LIMITED, priority 2018, published 2020) are inhibition and IC50 values, retold here.

Structures can show the parent of a compound that is named as a salt. A value given as a limit tells only on which side of the number the result lay.

For one assay, the target named is T1, MAPK14/p38α kinase (Homo sapiens, UniProt Q16539).
T1 construct: purchased ThermoFisher PV3304
As to the kind of experiment: MAPK14/p38α kinase assay (LanthaScreen TR-FRET). The assay is classed as biochemical. Particulars: 100 nM concentration of compound; read-out: Enzyme Activity MAPK14 (p38 alpha) % Inhibition at 100 nM. The protocol: MAPK14/p38α Kinase Assay for IC50 Determination:
IC50 values of compounds against MAPK14/P38α kinase were determined by Lanthascreen based TR-FRET assay. Kinase reactions were performed in a 10 μL volume in low-volume 384-well plates. The concentration of substrate was maintained at 400 nM in the assay, and the kinase reaction buffer (1×; Cat # PV3189, ThermoFisher) consisted of 50 mM HEPES pH 7.5, 0.01% BRIJ-35, 10 mM MgCl2, and 1 mM EGTA. Serially diluted compounds (3-fold) in DMSO (0.5% in final reaction) were incubated with cocktail of MAPK14/p38α kinase (20 ng/ml; Cat # PV3304, ThermoFisher), Substrate GFP-ATF2 (19-96), (0.4 μM; Cat # PV4445, ThermoFisher), ATP (90 μM; Cat # PV3227, ThermoFisher) and buffer. Kinase reactions were allowed to proceed for 1 hour at room temperature before EDTA (10 mM; Cat # P2825, ThermoFisher) and LanthaScreen™ Tb-antipATF2 (pThr71) Antibody (2 nM; Cat # PV4451, ThermoFisher) in TR-FRET dilution buffer (IX; Cat # PV3574, ThermoFisher) were added. The plate was allowed to incubate at room temperature for 30 minutes before being read on a BMG Pherastar plate reader using the LanthaScreen™ filter block for LanthaScreen™ TR-FRET.
The resulting TR-FRET emission ratio was plotted against the concentration of inhibitor, and the data was fit to a sigmoidal dose-response curve with a variable slope. The IC50 for the inhibitor was calculated from the curve.
In general terms: In TR-FRET formats the signal depends on donor and acceptor labels being close together.

The target in a further assay is T2, TGFBR1 (ALK5) (Homo sapiens, UniProt P36897).
T2 sequence (P36897 34-503): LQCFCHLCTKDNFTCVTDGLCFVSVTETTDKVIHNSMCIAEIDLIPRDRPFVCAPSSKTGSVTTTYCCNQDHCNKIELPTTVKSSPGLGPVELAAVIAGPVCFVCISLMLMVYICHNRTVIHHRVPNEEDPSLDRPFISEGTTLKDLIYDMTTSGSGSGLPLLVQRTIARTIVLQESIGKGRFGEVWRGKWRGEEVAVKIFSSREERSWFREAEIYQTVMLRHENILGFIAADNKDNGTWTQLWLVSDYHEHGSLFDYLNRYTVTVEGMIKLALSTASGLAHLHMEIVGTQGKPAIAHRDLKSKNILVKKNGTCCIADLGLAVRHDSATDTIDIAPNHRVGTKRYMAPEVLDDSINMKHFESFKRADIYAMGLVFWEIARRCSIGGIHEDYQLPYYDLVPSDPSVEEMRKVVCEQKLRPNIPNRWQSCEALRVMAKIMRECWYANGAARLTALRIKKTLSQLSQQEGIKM
Description: ALK5 kinase assay (LanthaScreen Terbium labeled TR-FRET). The assay is classed as biochemical. As to conditions: for inhibition at 0.1 µM: 100 nM concentration of compound, read-out: Enzyme Activity TGFBR1 (ALK5) % Inhibition at 100 nM; for IC50: Table 5, read-out: ALK5 IC50. The method, then:
ALK5 Kinase Assay for IC50 Determination:
IC50 values of compounds against TGFβ kinase was determined by LanthaScreen™ Terbium Labeled TR-FRET assay. Kinase assays were performed in IX kinase buffer (# PV6135, Invitrogen, Life Technologies Grand Island, N.Y.) where total reaction volume was 10 μL in low-volume 384-well plates (#4511,Corning). Serially diluted compounds (3-fold) were incubated with TGFβ kinase (6 nM) for 10 min, following which a mixture of ATP (10 μM) (# A1852, Sigma, St-Louis, Mo.) and fluorescent-PolyGT substrate (200 nM) (# PV3610, Invitrogen, Life Technologies Grand Island, N.Y.) was added and incubated in dark at room temperature for 1 h. After 1 h, 10 μL stop solution containing Terbium labeled antibody (4 nM) (# PV3529, Invitrogen, Life Technologies Grand Island, N.Y.) and EDTA (# E5134, Sigma, St-Louis, Mo.) (20 mM) in TR-FRET dilution buffer (# PV3574, Invitrogen, Life Technologies Grand Island, N.Y.) was added. Readings were taken in a Synergy Neo Plate reader (BioTek, Winooski) at single excitation of 340 nm and Dual emission at 495 nm and 520 nm respectively.
The % activity of test samples was calculated as (Sample−Min)×100/(Max−Min). [Max: DMSO control, complete reaction with enzyme with DMSO and Min: No enzyme with DMSO]. Percent inhibition (100-% activity) was fitted to the “four-parameter logistic model” in XLfit for determination of IC50 values.

The subject of a further assay is Panc-1. As to the kind of experiment: Cell viability assay (resazurin, 96 hr) in Panc-1. As to conditions: Homo sapiens; Panc-1 pancreatic cell line, 96 hr exposure; read-out: Panc-1_Cell Viability_IC50. The assay is classed as cell-based. The method, then: (§1) Cell Viability Assay in MIA PaCa-2 and Panc-1
(§2) MIA PaCa-2 (ATCC® CRL-1420™) and Panc-1 (CRL-1469™), both pancreatic cell lines were seeded in their respective medium (DMEM, Cat #10569044 with 10% FBS, Cat #16000044; Gibco for Panc-1 and an additional 2.5% Horse Serum, Cat #16050122; Gibco for MIA PaCa-2) at a cell count of 3000 cells per 100 μl per well in a 96 well edge plate (167425; ThermoFisher). Cells were allowed to grow at 37° C. for 24 hr in 5% CO2 (culture conditions) in a Nuaire incubator (humidified). Serially diluted compounds (100 μl) were added to the culture plate 24 hr later and the cultures (MIA PaCa-2 and Panc-1) were further incubated in culture conditions for 96 hr. Experiment was terminated at the completion of 96 hr exposure to the drug by replacing the medium with 100 μl of 1 mM of resazurin (R7017; Sigma) prepared in culture medium and the plates were further incubated in culture conditions for 4 hr. Fluorescence was then measured using a multimodal plate reader (Biotek Synergy Neo) at an excitation wavelength of 535 nm and emission wavelength of 590 nm to obtain relative fluorescence units. Data analysis was done by subtracting the background fluorescence (only medium blank) value from each reading and then normalizing with the vehicle control (DMSO treated cells) to obtain percent survival/proliferation. Percent survival at different doses was used to calculate IC50 by fitting the curve to the “four-parameter variable slope logistic model” using Prism Graph Pad.
A general note: Alamar Blue is a resazurin reagent that responds to reducing activity.

The subject of another assay is MIA PaCa-2. As to the kind of experiment: Cell viability assay (resazurin, 96 hr) in MIA PaCa-2. Particulars: Homo sapiens; MIA PaCa-2 pancreatic cell line, 96 hr exposure; read-out: MiaPaCa-2_Cell Viability_IC50. The assay is classed as cell-based. The protocol: as §1, §2

T1 sequence (Q16539 whole entry): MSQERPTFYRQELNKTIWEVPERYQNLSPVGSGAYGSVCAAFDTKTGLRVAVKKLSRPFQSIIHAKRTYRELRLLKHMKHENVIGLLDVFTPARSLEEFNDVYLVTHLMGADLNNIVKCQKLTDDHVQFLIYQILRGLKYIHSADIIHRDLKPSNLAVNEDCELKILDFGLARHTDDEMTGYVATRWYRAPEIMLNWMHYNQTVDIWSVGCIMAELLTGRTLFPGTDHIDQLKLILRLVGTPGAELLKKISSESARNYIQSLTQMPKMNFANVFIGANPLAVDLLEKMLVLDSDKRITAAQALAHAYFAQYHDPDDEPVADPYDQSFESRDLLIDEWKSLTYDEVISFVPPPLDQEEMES

On to `CC(C)c1cnc(-c2ccc(F)cc2)nc1Nc1ccnc2[nH]cc(N3CCNCC3)c12` [Compound No. 1, N-(2-(4-fluorophenyl)-5-isopropylpyrimidin-4-yl)-3-(piperazin-1-yl)-1H-pyrrolo [2,3-b] pyridin-4-amine hydrochloride], for which the inhibition at 0.1 µM on MAPK14/p38α kinase worked out at 61%; at TGFBR1 (ALK5) it was 99%. The IC50 in the assay on Panc-1 was 2.31 µM; in the assay with MIA PaCa-2, 1.63 µM.

Consider `CC(C)c1cnc(-c2ccc(F)cc2)nc1Nc1ccnc2[nH]cc(N3CCN(C)CC3)c12` [Compound No. 2, N-(2-(4-fluorophenyl)-5-isopropylpyrimidin-4-yl)-3-(4-methylpiperazin-1-yl)-1H-pyrrolo [2,3-b] pyridin-4-amine hydrochloride], for which the inhibition at 0.1 µM at MAPK14/p38α kinase was 19%; on TGFBR1 (ALK5), 84%. The IC50 worked out at 2.21 µM in the assay with Panc-1 and 7.7 µM in the assay on MIA PaCa-2.

In the case of `CC(C)c1cnc(-c2ccc(F)cc2)nc1Nc1ccnc2[nH]cc(N3CCCCC3)c12` [Compound No. 3, N-(2-(4-fluorophenyl)-5-isopropylpyrimidin-4-yl)-3-(piperidin-1-yl)-1H-pyrrolo [2,3-b] pyridin-4-amine hydrochloride], the inhibition at 0.1 µM at MAPK14/p38α kinase is 42%; on TGFBR1 (ALK5), 72%. The results for the IC50 in the assay with Panc-1 and in the assay with MIA PaCa-2 were over 27 µM and over 30 µM, respectively.

With `CC(C)c1cnc(-c2ccc(F)cc2)nc1Nc1ccnc2[nH]cc(C3(O)CCNCC3)c12` [Compound No. 13, 4-(4-((2-(4-fluorophenyl)-5-isopropylpyrimidin-4-yl)amino)-1H-pyrrolo[2,3-b]pyridin-3-yl)piperidin-4-ol hydrochloride], the IC50 on TGFBR1 (ALK5) was 0.108 µM; in the assay with Panc-1, 17.9 µM; in the assay with MIA PaCa-2 it was 10.9 µM.

As to `CC(C)c1cnc(-c2ccc(F)cc2)nc1Nc1ccnc2[nH]cc(N3CCOCC3C)c12` (stereo not drawn) [Compound No. 14, N-(2-(4-fluorophenyl)-5-isopropylpyrimidin-4-yl)-3-(3-methylmorpholino)-1H-pyrrolo [2,3-b] pyridin-4-amine hydrochloride], the IC50 on TGFBR1 (ALK5) is 3.71 µM; in the assay on Panc-1, 11.2 µM; with MIA PaCa-2, 11.1 µM.

Take `CC(C)c1cnc(-c2ccc(F)cc2)nc1Nc1ccnc2[nH]cc(N3CCC(N)CC3)c12` [Compound No. 15, 3-(4-aminopiperidin-1-yl)-N-(2-(4-fluorophenyl)-5-isopropylpyrimidin-4-yl)-1H-pyrrolo[2,3-b]pyridin-4-amine hydrochloride]: the IC50 on TGFBR1 (ALK5) is 0.245 µM; with Panc-1, 2.96 µM; in the assay on MIA PaCa-2, 5.5 µM.

Take `CC(C)c1cnc(-c2ccc(F)cc2)nc1Nc1ccnc2[nH]cc(C(=O)C(=O)N(C)C)c12` [Compound No. 16, 2-(4-((2-(4-fluorophenyl)-5-isopropylpyrimidin-4-yl)amino)-1H-pyrrolo[2,3-b]pyridin-3-yl)-N,N-dimethyl-2-oxoacetamide]: the IC50 on TGFBR1 (ALK5) came to 1.92 µM; in the assay on Panc-1, 17.1 µM; in the assay on MIA PaCa-2, 10.2 µM.

For the molecule `CCCCNC(=O)C(=O)c1c[nH]c2nccc(Nc3nc(-c4ccc(F)cc4)ncc3C(C)C)c12` [Compound No. 20, N-butyl-2-(4-(2-(4-fluorophenyl)-5-isopropylpyrimidin-4-ylamino)-1H-pyrrolo [2,3-b]pyridin-3-yl)-2-oxoacetamide hydrochloride], the IC50 at TGFBR1 (ALK5) was over 5 µM; in the assay on Panc-1, over 30 µM; in the assay with MIA PaCa-2, over 30 µM.

`CNC(=O)C(=O)c1c[nH]c2nccc(Nc3cc(-c4ccc(F)cc4)ncc3C(C)C)c12` [Compound No. 21, 2-(4-((2-(4-fluorophenyl)-5-isopropylpyridin-4-yl)amino)-1H-pyrrolo[2,3-b]pyridin-3-yl)-N-methyl-2-oxoacetamide hydrochloride]: the IC50 came to 0.574 µM at TGFBR1 (ALK5), 12.7 µM in the assay on Panc-1 and 10.7 µM in the assay with MIA PaCa-2.

Turning to `CC(C)c1cnc(-c2ccc(F)cc2)nc1Nc1ccnc2[nH]cc(C(=O)C(=O)N3CCOCC3)c12` [Compound No. 22, 1-(4-(2-(4-fluorophenyl)-5-isopropylpyrimidin-4-ylamino)-1H-pyrrolo [2,3-b]pyridin-3-yl)-2-morpholinoethane-1,2-dione hydrochloride], the IC50 at TGFBR1 (ALK5) was 3.95 µM; in the assay on Panc-1, 14.2 µM; with MIA PaCa-2, over 30 µM.

Take `CC(C)c1cnc(-c2ccc(F)cc2)nc1Nc1ccnc2[nH]cc(C(=O)C(=O)N3CCN(C)CC3)c12` [Compound No. 24, 1-(4-(2-(4-fluorophenyl)-5-isopropylpyrimidin-4-ylamino)-1H-pyrrolo [2,3-b]pyridin-3-yl)-2-(4-methylpiperazin-1-yl) ethane-1,2-dione hydrochloride]: the IC50 on TGFBR1 (ALK5) was 1.5 µM; in the assay with Panc-1, over 30 µM; in the assay with MIA PaCa-2, 0.77 µM.

Consider `COc1ccc(-c2ncc(C(C)C)c(Nc3ccnc4[nH]cc(C(=O)C(N)=O)c34)n2)cc1` [Compound No. 25, 2-(4-((5-isopropyl-2-(4-methoxyphenyl)pyrimidin-4-yl)amino)-1H-pyrrolo[2,3-b]pyridin-3-yl)-2-oxoacetamide hydrochloride], for which the IC50 was 2.57 µM at TGFBR1 (ALK5), over 30 µM in the assay with Panc-1 and over 30 µM in the assay with MIA PaCa-2.

As to `CNC(=O)C(=O)c1c[nH]c2nccc(Nc3nc(-c4ccc(F)cc4)ncc3C(C)C)c12` [Compound No. 29, 2-(4-((2-(4-fluorophenyl)-5-isopropylpyrimidin-4-yl)amino)-1H-pyrrolo[2,3-b]pyridin-3-yl)-N-methyl-2-oxoacetamide hydrochloride], the IC50 at TGFBR1 (ALK5) was found to be 2.77 µM; with Panc-1 it was 26 µM; in the assay with MIA PaCa-2 it was 23 µM.
